The text below walks through data of patent publication US8426588B2, “Phenylalanine derivatives” (Ajinomoto Co, Inc., priority 2000, dated 2013).

One assay deals with T1, integrin α4β1 (Homo sapiens, UniProt P05556+P13612).
T1 construct: cell strain Jurkat (ATCC TIB-152) of human T cells, known to express integrin α4β1; endogenous in cells; host or cells: Jurkat (ATCC TIB-152)
In words: VCAM antagonist activity (VCAM-1/α4β1 binding assay), Jurkat cells binding to VCAM-1. Particulars: Jurkat human T cells binding to recombinant human VCAM-1; read-out: VCAM antagonistic activity (IC50) α4β1. Type of assay: cell-based. As for the experimental part: VCAM Antagonist Activity (VCAM-1/α4β1 Binding Assay)
The capacity of a test substance antagonistic to the binding of cell strain Jurkat (ATCC TIB-152) of human T cells, known to express integrin α4β1, to VCAM-1 was determined.
(§1) 100 μl/well of a solution (500 ng/ml) of recombinant human VCAM-1 (R & D systems) solution diluted with buffer A (0.1 M NaHCO3, pH 9.6) was added to a micro titer plate having 96 wells (Nunc Maxisorp). After the incubation at 4° C. overnight, unbound VCAM-1 was removed by washing once with PBS. After completion of the washing, a buffer (buffer B) obtained by diluting Block Ace (Dainippon Pharmaceutical Co., Ltd.) with PBS to ¼ concentration was added in an amount of 150 μl/well. After the incubation at room temperature for 1 hour, buffer B was removed and the plate was washed with PBS once.
Jurkat cells were washed with Dulbecco modified Eagle medium (SIGMA, hereinafter referred to as “DMEM”) twice and then incubated in DMEM containing 10 μg/ml of Calcein-AM (Wako Pure Chemical Industries, Ltd.) at 37° C. in dark place for 30 minutes to label with fluorescence. The cells were again suspended in a binding buffer (20 mM HEPES, DMEM containing 0.1% BSA).
(§2) 50 μl of a test substance of various concentrations obtained by the dilution with the binding buffer was added to the plate. Immediately thereafter, 50 μl (final volume: 100 μl/well) of the fluorescent Jurkat cells (4×10^6 cells/ml) were added thereto, and they were incubated in dark place at room temperature for 30 minutes. After the shaking on a plate shaker (IKA MTS-4) at 800 rpm for 30 seconds, the solution was immediately removed to remove the unbound cells. The fluorescence quantity of the bound cells remaining in the wells was determined with a fluorescent plate reader (Wallac 1920 ARVO multi-label counter) (filter excitation wave length: 485 nm, emission wave length: 535 nm). The fluorescent strength thus obtained is proportional to the number of Jurkat cells bound to VCAM-1 and remaining on the plate. The binding rate of each test material in various concentrations was determined while the fluorescent strength of the test material-free well was determined to be 100%.

A further assay has as its target T2, integrin α4β7 (Homo sapiens, UniProt P13612+P26010).
T2 construct: lymphoma cell strain RPMI-8866 of human B cells, known to express integrin α4β7; endogenous in cells; host or cells: RPMI-8866
T2 sequence (P13612 34-1032): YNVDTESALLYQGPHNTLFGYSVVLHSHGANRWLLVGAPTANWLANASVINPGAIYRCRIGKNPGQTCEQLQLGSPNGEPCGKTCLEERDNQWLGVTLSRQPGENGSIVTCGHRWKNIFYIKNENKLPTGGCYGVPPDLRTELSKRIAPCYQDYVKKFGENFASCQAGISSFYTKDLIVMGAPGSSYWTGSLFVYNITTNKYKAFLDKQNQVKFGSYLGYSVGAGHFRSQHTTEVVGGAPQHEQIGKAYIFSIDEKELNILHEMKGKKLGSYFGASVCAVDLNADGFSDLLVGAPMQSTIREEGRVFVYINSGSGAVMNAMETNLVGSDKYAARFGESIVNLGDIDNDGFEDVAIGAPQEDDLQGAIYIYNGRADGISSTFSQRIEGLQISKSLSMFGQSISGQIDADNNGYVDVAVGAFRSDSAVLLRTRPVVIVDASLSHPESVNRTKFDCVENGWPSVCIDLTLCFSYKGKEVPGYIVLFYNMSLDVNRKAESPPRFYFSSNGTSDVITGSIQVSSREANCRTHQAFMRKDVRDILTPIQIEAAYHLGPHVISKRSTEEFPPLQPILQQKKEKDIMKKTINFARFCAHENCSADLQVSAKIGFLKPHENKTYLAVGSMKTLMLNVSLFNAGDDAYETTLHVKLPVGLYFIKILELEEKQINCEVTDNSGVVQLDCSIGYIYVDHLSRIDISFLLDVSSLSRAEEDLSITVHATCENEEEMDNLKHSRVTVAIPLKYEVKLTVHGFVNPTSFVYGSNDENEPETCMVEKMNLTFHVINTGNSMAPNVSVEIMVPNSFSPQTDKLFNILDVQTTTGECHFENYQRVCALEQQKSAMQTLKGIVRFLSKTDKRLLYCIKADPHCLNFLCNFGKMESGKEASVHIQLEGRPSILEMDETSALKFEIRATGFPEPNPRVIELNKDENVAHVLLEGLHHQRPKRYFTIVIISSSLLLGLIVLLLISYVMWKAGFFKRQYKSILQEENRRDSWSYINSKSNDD
T2 sequence (P26010 20-798): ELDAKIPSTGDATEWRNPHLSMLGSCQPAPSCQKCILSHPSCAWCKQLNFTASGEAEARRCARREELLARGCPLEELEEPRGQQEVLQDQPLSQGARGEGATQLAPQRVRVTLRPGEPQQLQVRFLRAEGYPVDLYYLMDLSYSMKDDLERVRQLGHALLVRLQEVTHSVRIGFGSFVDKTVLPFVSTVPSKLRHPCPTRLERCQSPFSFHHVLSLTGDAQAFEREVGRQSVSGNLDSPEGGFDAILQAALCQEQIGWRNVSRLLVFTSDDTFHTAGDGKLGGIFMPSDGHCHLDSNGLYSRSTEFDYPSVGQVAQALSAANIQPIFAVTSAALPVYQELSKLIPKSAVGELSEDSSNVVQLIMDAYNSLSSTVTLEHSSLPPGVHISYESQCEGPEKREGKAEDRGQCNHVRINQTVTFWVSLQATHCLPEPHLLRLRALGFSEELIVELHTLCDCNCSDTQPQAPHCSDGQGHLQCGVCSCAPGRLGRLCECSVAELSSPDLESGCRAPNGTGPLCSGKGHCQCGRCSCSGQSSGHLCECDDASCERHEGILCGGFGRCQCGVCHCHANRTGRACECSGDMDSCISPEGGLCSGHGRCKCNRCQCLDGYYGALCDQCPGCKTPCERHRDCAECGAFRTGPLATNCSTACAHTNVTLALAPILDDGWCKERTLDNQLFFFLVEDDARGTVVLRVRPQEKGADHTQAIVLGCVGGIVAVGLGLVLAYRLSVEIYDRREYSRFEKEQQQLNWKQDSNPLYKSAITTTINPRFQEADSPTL
In words: VCAM antagonistic activity (VCAM-1/α4β7 binding assay), RPMI-8866 cells binding to VCAM-1. Particulars: RPMI-8866 human B lymphoma cells binding to recombinant human VCAM-1; binding buffer with 4 mM MnCl2. It is filed as cell-based. As for the experimental part: VCAM Antagonistic Activity (VCAM-1/α4β7 Binding Assay)
The capacity of a test substance antagonistic to the binding of lymphoma cell strain RPMI-8866 of human B cells, known to express integrin α4β7, to VCAM-1 was determined.
as §1
RPMI-8866 cells were washed with DMEM twice and incubated in Dulbecco modified Eagle medium containing 10 μg/ml of Calcein-AM (Wako Pure Chemical Industries, Ltd.) (SIGMA, hereinafter referred to as “DMEM”) in dark place at 37° C. for 30 minutes to label with fluorescence. The cells were again suspended in a binding buffer (20 mM HEPES, DMEM containing 0.1% BSA) containing 4 mM of MnCl2.
as §2, with “RPMI-8866” for “Jurkat”, “1420” for “1920”

T1 sequence (P05556 21-798, one chain of several): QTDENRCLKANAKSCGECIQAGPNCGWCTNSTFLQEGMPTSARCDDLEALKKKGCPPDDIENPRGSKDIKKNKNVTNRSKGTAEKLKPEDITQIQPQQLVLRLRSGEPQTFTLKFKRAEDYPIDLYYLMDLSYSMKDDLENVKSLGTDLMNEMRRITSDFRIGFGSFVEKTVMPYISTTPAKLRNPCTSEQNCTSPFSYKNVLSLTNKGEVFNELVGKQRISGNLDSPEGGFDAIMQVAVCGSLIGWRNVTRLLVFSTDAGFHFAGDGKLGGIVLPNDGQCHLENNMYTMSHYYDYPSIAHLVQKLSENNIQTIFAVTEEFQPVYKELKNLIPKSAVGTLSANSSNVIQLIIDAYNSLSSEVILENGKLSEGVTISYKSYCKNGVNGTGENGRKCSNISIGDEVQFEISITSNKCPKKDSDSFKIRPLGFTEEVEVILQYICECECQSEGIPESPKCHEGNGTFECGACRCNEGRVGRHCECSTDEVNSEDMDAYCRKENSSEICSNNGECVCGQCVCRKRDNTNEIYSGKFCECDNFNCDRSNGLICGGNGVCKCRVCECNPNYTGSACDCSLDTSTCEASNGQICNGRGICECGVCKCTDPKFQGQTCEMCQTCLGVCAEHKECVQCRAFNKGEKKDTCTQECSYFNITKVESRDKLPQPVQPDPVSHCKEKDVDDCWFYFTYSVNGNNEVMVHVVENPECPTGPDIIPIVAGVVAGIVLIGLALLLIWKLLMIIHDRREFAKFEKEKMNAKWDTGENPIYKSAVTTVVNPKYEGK

Usually IC50 stands for the concentration that gives 50% inhibition. With `COc1cccc(OC)c1C(=O)N[C@@H](Cc1ccc(-n2c(=O)c3ccccc3n(C)c2=O)cc1)C(=O)O` [Example 9], the IC50 at integrin α4β1 amounted to 440 nM; on integrin α4β7, 94 nM.
Take `O=C(O)Cn1c(=O)n(-c2ccc(C[C@H](NC(=O)c3c(Cl)cccc3Cl)C(=O)O)cc2)c(=O)c2ccccc21` [Example 7]: the IC50 on integrin α4β1 came to 110 nM; at integrin α4β7 it was 22 nM.
Take `O=C(N[C@@H](Cc1ccc(-n2nnc3ccccc3c2=O)cc1)C(=O)O)c1c(Cl)cccc1Cl` [Example 90]: the 50% inhibitory concentration (IC50) was 511 nM on integrin α4β1 and 43.7 nM at integrin α4β7.
The corresponding values for `Cn1c(=O)n(-c2ccc(C[C@H](NC(=O)c3c(Cl)cccc3Cl)C(=O)O)cc2)c(=O)c2cc(Cl)ccc21` [Example 183] are 25 nM and 1.7 nM.
With `COc1ccc2c(c1)c(=O)n(-c1ccc(C[C@H](NC(=O)c3c(Cl)cccc3Cl)C(=O)O)cc1)c(=O)n2C` [Example 184], the IC50 was 31 nM on integrin α4β1 and 3.3 nM at integrin α4β7.
The corresponding values for `Cn1c(=O)n(-c2ccc(C[C@H](NC(=O)c3c(Cl)cccc3Cl)C(=O)O)cc2)c(=O)c2cc(F)ccc21` [Example 189] are 18 nM and 1.1 nM.
Turning to `Cn1c(=O)n(-c2ccc(C[C@H](NC(=O)c3c(Cl)cccc3Cl)C(=O)O)cc2)c(=O)c2ccc(F)cc21` [Example 72], the IC50 turned out to be 27 nM at integrin α4β1 and 2.6 nM at integrin α4β7.
Taken in the same sequence, the figures for `CN1CCC(=O)N(c2ccc(C[C@H](NC(=O)c3c(Cl)cccc3Cl)C(=O)O)cc2)C1=O` [Example 135] were 570 nM and 12 nM.
Taken in the same sequence, the figures for `COc1nc2ccccc2c(=O)n1-c1ccc(C[C@H](NC(=O)c2c(Cl)cccc2Cl)C(=O)O)cc1` [Example 36] were 490 nM and 6.6 nM.
For the compound `COc1cccc2c(=O)n(-c3ccc(C[C@H](NC(=O)c4c(Cl)cccc4Cl)C(=O)O)cc3)c(=O)n(C)c12` [Example 180], the IC50 at integrin α4β1 came to 86 nM; at integrin α4β7, 5.4 nM.
Taken in the same sequence, the figures for `Cc1cccc2[nH]c(=O)n(-c3ccc(C[C@H](NC(=O)c4c(Cl)cccc4Cl)C(=O)O)cc3)c(=O)c12` [Example 53] were 2460 nM and 66.1 nM.
The corresponding values for `CC(=O)Nc1ccc2c(c1)c(=O)n(-c1ccc(C[C@H](NC(=O)c3c(Cl)cccc3Cl)C(=O)O)cc1)c(=O)n2C` [Example 104] are 16 nM and 1.4 nM.
Regarding `O=C(N[C@@H](Cc1ccc(-n2c(=O)c3cc([N+](=O)[O-])ccc3n(C3CC3)c2=S)cc1)C(=O)O)c1c(Cl)cccc1Cl` [Example 68], the IC50 on integrin α4β1 turned out to be 350 nM; on integrin α4β7 it was 1.5 nM.
Taken in the same sequence, the figures for `CC(C)Cn1c(=O)n(-c2ccc(C[C@H](NC(=O)c3c(Cl)cccc3Cl)C(=O)O)cc2)c(=O)c2cc([N+](=O)[O-])ccc21` [Example 61] were 1150 nM and 42 nM.
For `O=C(N[C@@H](Cc1ccc(-n2c(=O)c3ccccc3n(Cc3ccc(Cl)cc3)c2=O)cc1)C(=O)O)c1c(Cl)cccc1Cl` [Example 117], the IC50 at integrin α4β1 stood at 480 nM; at integrin α4β7, 19 nM.
For the compound `Cc1cccc(C)c1C(=O)N[C@@H](Cc1ccc(-n2c(CCl)nc3ccccc3c2=O)cc1)C(=O)O` [Example 44], the IC50 on integrin α4β1 was 4230 nM; on integrin α4β7, 79 nM.
The corresponding values for `Cc1nc2ccccc2c(=O)n1-c1ccc(C[C@H](NC(=O)c2c(Cl)cccc2Cl)C(=O)O)cc1` [Example 31] are 630 nM and 50 nM.
Taken in the same sequence, the figures for `COc1cc2c(=O)n(-c3ccc(C[C@H](NC(=O)c4c(Cl)cccc4Cl)C(=O)O)cc3)c(=O)n(C)c2cc1OC` [Example 188] were 11 nM and 2.7 nM.
Taken in the same sequence, the figures for `Cn1c(=O)n(-c2ccc(C[C@H](NC(=O)c3c(Cl)cccc3Cl)C(=O)O)cc2)c(=O)c2cc([N+](=O)[O-])ccc21` [Example 63] were 28 nM and 1.3 nM.
